According to patent US9695155B2, “Herbicidal substituted pyrimidinyloxy benzene compounds” (E. I. DU PONT DE NEMOURS AND COMPANY, priority 2013, dated 2017):

Assays:
barnyardgrass [1] = experiment: Test A preemergence; assay type: in vivo, Echinochloa crus-galli
How it was run: (§1)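 Pre- and postemergence greenhouse screen. Soil: loam + sand. Spray carrier: solvent mixture, non-phytotoxic, with surfactant. Post timing at 1–2 leaves, height 2–10 cm. Readout: visual injury on a 0–100 scale roughly 10 days after application, untreated plants as reference.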

barnyardgrass [2] = experiment: Test A postemergence; assay type: in vivo, Echinochloa crus-galli; conditions: 0 to 100 scale, 0 no effect, 100 complete control
How it was run: as §1

pigweed = experiment: Test A postemergence; assay type: in vivo, Amaranthus retroflexus; conditions: 0 to 100 scale, 0 no effect, 100 complete control
How it was run: as §1

rice = experiment: Test B flooded paddy test; assay type: in vivo, Oryza sativa; conditions: Flood, 250 g ai/ha; 0 to 100 scale where 0 is no effect and 100 is complete control
How it was run: (§2)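 2-leaf stage plants; pots flooded to 3 cm, compound added to paddy water, depth maintained. Greenhouse 13–15 d. Visual rating vs untreated controls, 0 (no effect) to 100 (complete control); dash = no result.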

sedge, umbrella = experiment: Test B flooded paddy test; assay type: in vivo, Cyperus difformis; conditions: Flood, 250 g ai/ha; 0 to 100 scale where 0 is no effect and 100 is complete control
How it was run: as §2

barnyardgrass [3] = experiment: Test B flooded paddy test; assay type: in vivo, Echinochloa crus-galli; conditions: Flood, 250 g ai/ha; 0 to 100 scale where 0 is no effect and 100 is complete control
How it was run: as §2

large (Lg) crabgrass = experiment: Test C postemergence; assay type: in vivo, Digitaria sanguinalis
How it was run: (§3)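 Visual injury score versus untreated controls, 0 = no effect, 100 = complete control, taken 13 to 15 days after treatment in the greenhouse. Pre-emergence pots held loam/sand; post-emergence plants grew in sphagnum peat/vermiculite mix and were sprayed at the 1- to 4-leaf stage.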

giant foxtail = experiment: Test C postemergence; assay type: in vivo, Setaria faberii
How it was run: as §3

lambsquarters = experiment: Test C postemergence; assay type: in vivo, Chenopodium album
How it was run: as §3

morningglory = experiment: Test C postemergence; assay type: in vivo, Ipomoea coccinea
How it was run: as §3

yellow nutsedge = experiment: Test C postemergence; assay type: in vivo, Cyperus esculentus
How it was run: as §3

barnyardgrass [4] = experiment: Test C postemergence; assay type: in vivo, Echinochloa crus-galli
How it was run: as §3

wild oat = experiment: Test C postemergence; assay type: in vivo, Avena fatua
How it was run: as §3

chickweed = experiment: Test C postemergence; assay type: in vivo, Stellaria media
How it was run: as §3

[5] = 16 g ai/ha, postemergence, 0 is no effect, 100 is complete control
[6] = 31 g ai/ha, postemergence, visual rating, scale 0 to 100 (0 no effect, 100 complete control), 13 to 15 days
[7] = 125 g ai/ha, postemergence, visual rating, scale 0 to 100 (0 no effect, 100 complete control)
[8] = Postemergence, 62 g ai/ha, scale 0 to 100 (0 no effect, 100 complete control), 13 to 15 days

Q: FCc1cccc(Oc2ncc(Cl)cn2)c1-n1cc(I)cn1 [Compound 245] was tested. Which “Plant response rating, Barnyardgrass” value (barnyardgrass [1]; 31 g ai/ha, 0 to 100 scale where 0 is no effect and 100 is complete control, visual, approximately 10 days) did it give?
A: 0

Q: And the “Barnyardgrass plant response rating (0 to 100 scale, 0 is no effect, 100 is complete control)” value (barnyardgrass [1]; 125 g ai/ha)?
A: 70

Q: What about the “Plant response rating, Barnyardgrass” value (barnyardgrass [2]; 31 g ai/ha) of the same compound?
A: 0

Q: What about the “Plant response rating, Barnyardgrass” value (barnyardgrass [2]; 125 g ai/ha) of the same compound?
A: 30

Q: And the “Plant response rating, Pigweed” value (pigweed; 31 g ai/ha)?
A: 0

Q: What about the “Plant response rating, Pigweed” value (pigweed; 125 g ai/ha) of the same compound?
A: 90

Q: And the “Plant response rating, Rice” value (rice)?
A: 0

Q: And the “Plant response rating, Sedge, Umbrella” value (sedge, umbrella)?
A: 60

Q: And the “Plant response rating, Barnyardgrass” value (barnyardgrass [3])?
A: 0

Q: What about the “Plant response rating (0 to 100), Crabgrass, Large” value (large (Lg) crabgrass; [5]) of the same compound?
A: 5

Q: And the “Crabgrass, Large plant response rating” value (large (Lg) crabgrass; [6])?
A: 5

Q: What about the “Plant response rating, Crabgrass, Large” value (large (Lg) crabgrass; [7]) of the same compound?
A: 15

Q: And the “Plant response rating, Crabgrass, Large” value (large (Lg) crabgrass; [8])?
A: 10

Q: And the “Plant response rating (0 to 100), Foxtail, Giant” value (giant foxtail; [5])?
A: 35

Q: What about the “Foxtail, Giant plant response rating” value (giant foxtail; [6]) of the same compound?
A: 35

Q: What about the “Plant response rating, Foxtail, Giant” value (giant foxtail; [7]) of the same compound?
A: 15

Q: What about the “Plant response rating, Foxtail, Giant” value (giant foxtail; [8]) of the same compound?
A: 20

Q: What about the “Plant response rating (0 to 100), Lambsquarters” value (lambsquarters; [5]) of the same compound?
A: 50

Q: What about the “Lambsquarters plant response rating” value (lambsquarters; [6]) of the same compound?
A: 70

Q: And the “Plant response rating, Lambsquarters” value (lambsquarters; [7])?
A: 98

Q: And the “Plant response rating, Lambsquarters” value (lambsquarters; [8])?
A: 80

Q: What about the “Plant response rating (0 to 100), Morningglory” value (morningglory; [5]) of the same compound?
A: 5

Q: What about the “Morningglory plant response rating” value (morningglory; [6]) of the same compound?
A: 30

Q: And the “Plant response rating, Morningglory” value (morningglory; [7])?
A: 85

Q: And the “Plant response rating, Morningglory” value (morningglory; [8])?
A: 65

Q: And the “Plant response rating (0 to 100), Nutsedge, Yellow” value (yellow nutsedge; [5])?
A: 5

Q: What about the “Nutsedge, Yellow plant response rating” value (yellow nutsedge; [6]) of the same compound?
A: 5

Q: And the “Plant response rating, Nutsedge, Yellow” value (yellow nutsedge; [7])?
A: 10

Q: What about the “Plant response rating, Nutsedge, Yellow” value (yellow nutsedge; [8]) of the same compound?
A: 5

Q: What about the “Plant response rating (0 to 100), Barnyardgrass” value (barnyardgrass [4]; [5]) of the same compound?
A: 5

Q: What about the “Barnyardgrass plant response rating” value (barnyardgrass [4]; [6]) of the same compound?
A: 5

Q: And the “Plant response rating, Barnyardgrass” value (barnyardgrass [4]; [7])?
A: 5

Q: What about the “Plant response rating, Barnyardgrass” value (barnyardgrass [4]; Postemergence, 62 g ai/ha, scale 0 to 100 (0 no effect, 100 complete control)) of the same compound?
A: 5

Q: And the “Plant response rating (0 to 100), Oat, Wild” value (wild oat; [5])?
A: 0

Q: What about the “Oat, Wild plant response rating” value (wild oat; [6]) of the same compound?
A: 0

Q: What about the “Plant response rating, Oat, Wild” value (wild oat; [7]) of the same compound?
A: 5

Q: And the “Plant response rating, Oat, Wild” value (wild oat; [8])?
A: 5

Q: And the “Plant response rating (0 to 100), Chickweed” value (chickweed; [5])?
A: 5

Q: And the “Chickweed plant response rating” value (chickweed; [6])?
A: 60

Q: What about the “Plant response rating, Chickweed” value (chickweed; [7]) of the same compound?
A: 100

Q: What about the “Plant response rating, Chickweed” value (chickweed; [8]) of the same compound?
A: 80
